Data from patent publication US6797721B2, “Phorboxazole derivatives for treating cancer” (Parker Hughes Institute, priority 1999, dated 2004).
Like-named read-outs stand apart in the source and are kept apart here.

Tests used:
Format in all cases: cell-based
[1] = system: NALM-6 human B-lineage acute lymphoblastic leukemia cells; test: MTT cytotoxicity assay, NALM-6
Procedure: (§1) The cytotoxicity assay of synthetic Phorboxazole A and various derivative compounds against human tumor cells was performed using the MTT (3-[4,5-dimethylthiazol-2-yl]-2,5-diphenyl tetrazolium bromide) assay (Boehringer Mannheim Corp., Indianapolis, Ind.). Briefly, exponentially growing brain tumor cells were seeded into a 96-well plate at a density of 2.5×10^4 cells/well and incubated for 36 hours at 37° C. prior to drug exposure. On the day of treatment, culture medium was carefully aspirated from the wells and replaced with fresh medium containing the various phorboxazole A derivative compounds as well as the tyrosine kinase inhibitory isoflavone genistein (GEN) at concentrations ranging from 0.1 to 250 μM. Triplicate wells were used for each treatment.
(§2) Human glioblastoma cells U373 (brain cancer), human B-lineage acute lymphoblastic leukemia cells NALM-6, and human breast cancer cells BT-20 were obtained from American Type Culture Collection (Rockville, Md.) and maintained as a continuous cell line in Dulbecco's modified Eagles's medium supplemented with 10% fetal bovine serum and antibiotics.
(§3) The cells were incubated with the various compounds for 24-36 hours at 37° C. in a humidified 5% CO2 atmosphere. To each well, 10 μl of MTT (0.5 mg/ml final concentration) was added and the plates were incubated at 37° C. for 4 hours to allow MTT to form formazan crystals by reacting with metabolically active cells. The fonnazan crystals were solubilized overnight at 37° C. in a solution containing 10% SDS in 0.01 M HCl. The absorbance of each well was measured in a microplate reader (Labsystems) at 540 nm and a reference wavelength of 690 nm. To translate the OD540 values into the number of live cells in each well, the OD540 values were compared to those on standard OD540-versus-cell number curves generated for each cell line. The percent survival was calculated using the formula: [formula]
(§4) The IC50 values were calculated by non-linear regression analysis.

[2] = system: U373 human glioblastoma cells; test: MTT cytotoxicity assay, U373; conditions: U373 MG, read-out: IC50 [MTT]
Procedure: as §1, §2, §3, §4

[3] = system: BT-20 human breast cancer cells; test: MTT cytotoxicity assay, BT-20
Procedure: as §1, §2, §3, §4

[4] = NALM-6 (leukemia, ALL), 24-36 hours, read-out: IC50 [MTT]
[5] = U373 (brain tumor, glioblastoma), 24-36 hours
[6] = BT-20 (breast cancer), 24-36 hours, read-out: IC50 [MTT]

Measured: IC50

C=C1C[C@@H]2C[C@@H]3C[C@@H](O)C[C@@H](O3)c3coc(n3)/C=C/C[C@H]3O[C@@H](/C(C)=C/c4coc(C)n4)[C@H](C)[C@@H](OC(=O)/C=C\C[C@@H](C1)O2)[C@H]3C [Compound 2, 32-Methyl-phorboxolide A (C1-C32 analog)]
> 2000 nM: [1]; NALM-6, read-out: IC50 [MTT] | [2] | [3]; BT-20, read-out: IC50 [MTT]

C=C1C[C@@H]2C[C@@H]3C[C@@H](O)C[C@@H](O3)c3coc(n3)/C=C/C[C@H]3O[C@@H](/C(C)=C/c4coc(C[C@]5(O)C[C@H](OC)C[C@H](CO)O5)n4)[C@H](C)[C@@H](OC(=O)/C=C\C[C@@H](C1)O2)[C@H]3C [Compound 3, C1-C38 Phorboxazole A]
> 2000 nM: [1]; [4] | [2]; [5] | [3]; [6]

C#CC[C@H](/C=C/C(C)=C/[C@@H](O)[C@H]1C[C@@H](OC)C[C@](Cc2nc(/C=C(\C)[C@@H]3O[C@@H]4C/C=C/c5nc(co5)[C@H]5C[C@H](O)C[C@@H](C[C@H]6CC(=C)C[C@H](C/C=C\C(=O)O[C@@H]([C@H]4C)[C@H]3C)O6)O5)co2)(OC)O1)OC [Compound 7, 45,46-Dehydrobromo-33-O-methyl-Phorboxazole A]
> 2000 nM: [1]; [4] | [2]; [5] | [3]; [6]

C=C1C[C@@H]2C[C@@H]3C[C@@H](O)C[C@@H](O3)c3coc(n3)/C=C/C[C@H]3O[C@@H](/C(C)=C/c4coc(C[C@]5(O)C[C@H](OC)C[C@H]([C@H](O)/C=C(C)/C=C/[C@@H](C/C=C/Br)OC)O5)n4)[C@H](C)[C@@H](OC(=O)CCC[C@@H](C1)O2)[C@H]3C [Compound 10, 2,3-Dihydrophorboxazole A]
> 2000 nM: [1]; [4] | [2]; [5] | [3]; [6]
